The source of these data is patent US11440935B2, “3″,5″-dimethoxybenzoyl-3′-amino-3′-deoxy adenosine-5′-triphosphates and pharmaceutical uses thereof” (Danmir Therapeutics, LLC, priority 2018, dated 2022).

Values joined by “and” are separate entries in the source; they are usually repeats but may differ in a detail not shown here. Identical values can stand only once. “Also recorded” adds a separate entry of the source. Counter-ions that a name gives are not always drawn.

For one test, the system named is P2X3-P2X2/3. The following applies: experimental animals; cited from earlier work.
For a further test, the target named is T1, P2X2/3 receptor (Rattus norvegicus, UniProt P49653+P49654).
T1 construct: Single neurons were enzymatically isolated from rats' nodose ganglia; from tissue; host or cells: dissociated nodose ganglion neurons of 17-day-old male Sprague-Dawley rats
T1 sequence (P49653 1-472): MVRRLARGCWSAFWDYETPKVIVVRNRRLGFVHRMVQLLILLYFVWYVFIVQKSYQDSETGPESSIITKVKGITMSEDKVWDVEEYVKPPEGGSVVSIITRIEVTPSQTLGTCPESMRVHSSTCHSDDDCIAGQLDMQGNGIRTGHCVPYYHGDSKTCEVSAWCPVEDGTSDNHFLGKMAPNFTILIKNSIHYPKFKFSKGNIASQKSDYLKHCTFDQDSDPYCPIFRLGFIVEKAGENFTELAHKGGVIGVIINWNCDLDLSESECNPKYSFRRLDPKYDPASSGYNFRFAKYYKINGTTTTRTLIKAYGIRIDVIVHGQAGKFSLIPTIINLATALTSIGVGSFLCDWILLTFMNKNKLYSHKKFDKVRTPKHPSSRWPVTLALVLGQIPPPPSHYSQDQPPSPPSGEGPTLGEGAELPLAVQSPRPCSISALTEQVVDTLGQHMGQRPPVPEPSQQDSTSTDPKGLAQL
T1 sequence (P49654 1-397): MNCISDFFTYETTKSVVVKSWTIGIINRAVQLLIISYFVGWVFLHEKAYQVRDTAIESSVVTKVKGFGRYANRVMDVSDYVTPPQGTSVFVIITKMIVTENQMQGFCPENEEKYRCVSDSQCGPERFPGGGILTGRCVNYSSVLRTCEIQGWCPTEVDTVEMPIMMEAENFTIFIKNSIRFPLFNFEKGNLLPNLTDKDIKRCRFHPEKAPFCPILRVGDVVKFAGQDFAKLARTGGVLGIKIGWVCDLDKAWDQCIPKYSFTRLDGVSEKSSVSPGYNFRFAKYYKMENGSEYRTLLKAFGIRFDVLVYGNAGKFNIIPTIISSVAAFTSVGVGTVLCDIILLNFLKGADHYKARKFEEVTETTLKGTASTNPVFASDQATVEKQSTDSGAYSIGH
Briefly: Nodose ganglion neuron assay of P2X2/3 receptor antagonism (whole-cell voltage-clamp). It is filed as cell-based. The following applies: rat nodose ganglionic cell; for antagonism of ATP-induced inward current: ATP 10 μM, whole-cell voltage clamp. The method, then:
Single neurons were enzymatically isolated from rats' nodose ganglia as described by Zhong et al., Br J Pharmacol 1998; 125, 771-781. Briefly, 17- day old male Sprague-Dawley rats were killed by CO2 inhalation. Ganglia were rapidly dissected and placed in Leibovitz's L-15 medium (Life Technologies, Paisley, UK). Ganglia were desheathed, cut and incubated in 4 ml Ca^2+/Mg^2+-free Hanks' balanced salt solution with 10 mm Hepes buffer (pH 7.0) (HBSS) (Life Technologies) containing 1.5 mg ml-1 collagenase (Class-II; Worthington Biochemical Corporation, Reading, UK) and 6 mg ml-1 bovine serum albumin (Sigma) at 37° C. for 40 min. Ganglia were then incubated with 4 ml HBSS containing 1 mg ml-1 trypsin (Sigma) at 37° C. for 20 min. The solution was replaced with 3 ml of growth medium comprising L-15 medium supplemented with 10% bovine serum, 50 ng ml-1 nerve growth factor, 0.2% NaHCO3, 5.5 mg ml-1 glucose, 200 IU ml-1 penicillin and 200 μg ml-1 streptomycin. The ganglia were dissociated into single neurons by gentle trituration. The cells were then centrifuged at 160 g for 5 min, resuspended in 1 ml of growth medium, and plated onto 35 mm Petri dishes coated with 10 μg ml-1 laminin (Sigma). Cells were maintained at 37° C. in a humidified atmosphere containing 5% CO2 and used between 2 and 48 hours after plating.
Whole-cell voltage-clamp recordings were performed at room temperature using an Axopatch 200B amplifier (Axon Instruments, Union City, Calif., USA). Membrane potential was held at […]. The external solution contained (mM): 154 NaCl, 4.7 KCl, 1.2 MgCl2, 2.5 CaCl2), 10 Hepes, 5.6 glucose, and the pH was adjusted to 7.4 using NaOH. Recording electrodes (resistance […]) were filled with an internal solution which contained (mm): 56 citric acid, 3 MgCl2, 10 CsCl, 10 NaCl, […], 0.1 EGTA, 10 tetraethylammonium chloride, and the pH was adjusted to 7.2 using CsOH (total Cs+concentration 170 mm). […] Solution exchange measured by changes in open tip current was complete in 200 ms; however, complete exchange of solution around an intact cell was slower (<1 s). […]

Another test deals with P2X3 receptor. The following applies: guinea pig airway-specific primary nodose ganglion cell afferents; cited from earlier work.
A further test relates to conscious guinea-pigs. The test is described as follows: Aerosolized ATP-induced cough in conscious free moving guinea-pigs. The format is in vivo, guinea-pig. The method, then:
This study was performed in 6 guinea-pigs. The housing room was constantly ventilated, and the temperature kept at ˜23° C. After quarantine, the animals were individually placed in a whole-body, unrestrained, plethysmograph chamber (model PLY3215, Buxco Electronics Inc., Troy, N.Y.) for ˜40 min once a day for two continuous days before the cough test. All GPs were weighed before the cough study.
ATP was purchased from Sigma-Aldrich (Cat #A2383-10G). Solutions of ATP used for aerosol challenge were freshly made just prior to use by dissolving the powder in 0.9% saline (NaCl) solution. Solutions of DT-0111 used for aerosol administration were freshly made by dissolving the powder in 0.9% saline (NaCl) solution.
A plethysmograph chamber was continuously flushed with normoxic (21% O2 and 79% N2) room air at 2 L/min. The same amount of air was drawn through the chamber base outlets using a Buxco bias flow regulator to keep the chamber bias flow balanced. ATP or DT solution was aerosolized by using a vibrating mesh nebulizer (Ireland Ltd., Galway Ireland, AG-AL1100). The output rate of delivered aerosol was around 0.5 ml/min with droplet size (volume median diameter) at 2.5-4.0 μm (manufacture's indications). The aerosol was mixed with airflow and directly delivered into the plethysmograph chamber. The latter was placed in a standard chemical fume hood (size: 3×6 ft) installed in a standard laboratory.
A guinea-pig was placed in the chamber again after adaptation. Following stabilization, #1 guinea-pig was exposed to aerosolized ATP at 6 mg/ml, 24 mg/ml, and then 48 mg/ml for 5 min with an interval of 30 min. The remaining animals (#2-#6 guinea-pigs) were exposed to aerosolized ATP at 48 mg/ml for 5 min. Approximately 140 min later, the same dose of ATP was repeated immediately after DT-0111 aerosol inhalation (12 mg/ml for 5 min). […] The cough sound and behavioral activities were continuously monitored and recorded before (for 3 min), during 5 min aerosol delivery, and 20 min after cessation of the delivery.
Setup of the cough recording system. The top of the plethysmograph chamber was connected with a plastic tube that was attached by the nebulizer. Normoxic air driven by the nebulizer controller was flowed into the chamber and sucked out by the bias flow regulator with the in and out flow volume balanced (2.0 L/min). To detect cough, a microphone system was mounted in the roof of the chamber to record sound; a video camera was placed outside of the chamber to monitor animal body posture; and a Buxco pneumotachograph (differential pressure transducer) attached to the chamber to record airflow. All signals generated by video camera, microphone, and pressure transducer were amplified and recorded continuously by PowerLab/8 sp (model ML 785; ADInstruments Inc., Colorado Springs, Colo.) and a computer with the LabChart Pro 7 software.
Cough count. A typical cough response, as reported before (Girard et al., Eur Respir J, 1995; Blasko et al., American Journal of Advanced Drug Delivery. 5:131-138, 2017; Corboz et al., Journal of Pharmacology and Experimental Therapeutics. 363: 348-357, 2017), was defined by the simultaneous appearance of: 1) a transient and great change in the airflow (a rapid inspiration followed by rapid expiration); 2) a typical cough sound with the peak power density at 1-2 kHz in frequency spectrum (sneeze at 3.5-6.5 kHz); and 3) animal body (head) posture and movement.

Where [1] appears, read: ATP (48 mg/ml) aerosol 5 min alone, per guinea-pig.

With `O=C(O)c1cc(C(=O)O)c(C(=O)N(Cc2cccc(Oc3ccccc3)c2)[C@H]2CCCc3ccccc32)cc1C(=O)O` [Compound A-317491], the “effect on cyclophosphamide (CYP)-induced cystitis” value in the test on P2X3-P2X2/3 is listed as “inhibit cyclophosphamide (CYP)-induced cystitis”.

`COc1cc(OC)cc(C(=O)NC2C(O)[C@H](n3cnc4c(N)ncnc43)O[C@@H]2COP(=O)(O)OP(=O)(O)OP(=O)(O)O)c1` (stereo partly drawn) [Compound 11, 3″,5″-Dimethoxybenzoyl-3′-amino-3′-deoxyadenosine-5′-triphosphate Triethyl Ammonium Salt]: the “antagonism of ATP-induced inward current” value on P2X2/3 receptor (listed as 3″,5″-dimethoxybenzoyl-3′-amino-3′-deoxyadenosine-5′-triphosphate triethylammoni, Ammonium Salt) is “substantially abrogated”; at P2X2/3 receptor (listed as compound 11, Ammonium Salt), “substantially abrogated; also recorded: complete antagonism at the higher concentrations”. Further, the “reversibility of antagonism on washout” value on P2X2/3 receptor (after washing out the antagonist) is “reversible”.

With `COc1cc(C(C)C)c(Oc2cnc(N)nc2N)cc1I` [AF-353], in the test on P2X3 receptor, the “effect on TRPV4 receptor activation effects (Aδ fiber stimulation and coughing)” value is “markedly attenuated”.

Consider `Nc1ncnc2c1ncn2[C@@H]1O[C@H](COP(=O)(O)OP(=O)(O)OP(=O)(O)O)[C@@H](O)[C@H]1O` [ATP, adenosine 5′-triphosphate], for which the “cough evoked by aerosolized ATP” value in the test with conscious guinea-pigs (ATP 48 mg/ml, 5 min exposure, all animals) is “evoked significant coughs”. In the test with conscious guinea-pigs (setting [1]), the “Bout Cough B1# (cough number in first bout)” value was 24 and 14 and 18 and 19 and 21; the “Individual Cough” value is 3 and 0 (2×) and 1 (3×). Further, the Subtotal coughs in the test on conscious guinea-pigs (ATP (48 mg/ml) aerosol 5 min alone, per guinea-pig and Mean) is 27 and 24 and 35 and 19 and 22.
